Experimental data: patent publication US20220125839A1, “COMBINATION OF T-CELL THERAPY AND TARGETED THERAPY FOR TREATING THERAPY-RESISTANT MELANOMA WITH MUTATIONS IN THE BRAF GENE” (H. LEE MOFFITT CANCER CENTER AND RESEARCH INSTITUTE, INC., priority 2019, published 2022)

Tests used:
M6PR [1] = test: M6PR staining in patient derived xenografts (PDX); format: in vivo, mice; conditions: PDX from four patients (4237, 3929, 4070, 4298); treated for 3 weeks
Method: FIGS. 11A, 11B, and 11 C show M6PR expression in patients treated with vemurafenib plus ACT with TIL. […] Mice with PDX were left untreated for 4 weeks (untreated), or treated for 3 weeks with corresponding single agent BRAFi (PLX-PLX4720) or combination with MEKi (CPLX-PLX4720 and PD0325901). Tissues were stained for M6PR and intensity of staining was assessed in 8 fields. Typical example of staining (scale bar=25 μm) and statistical analysis are shown. Intensity was normalized to untreated samples. Mean and SD for 8 fields are shown. P values were calculated in unpaired Student's t-test. […] H-score results are shown. P value is shown in paired twotailed Student's t test.
To test the effect of therapy on M6PR expression in clinical samples, we established patient derived xenografts (PDX) from four patients who were either treatment naïve (4237, 3929), or progressed on BRAFi (4070) or combination of BRAFi and MEKi (4298). Mice with PDX were left untreated or treated for 3 weeks with single agent BRAFi (PLX-PLX4720) or combination with MEKi (CPLXPLX4720 and PD0325901).

M6PR [2] = test: Cell surface M6PR expression by flow cytometry in WM983B melanoma cells; format: cell-based, human
Method: Human studies were approved by The Wistar Institute IRB. Peripheral blood was collected from healthy volunteers after obtaining informed consent. Animal experiments were approved by The Wistar Institute Animal Care and Use Committee. The mice were kept under pathogen free conditions. Experiments were carried out using female NSG mice or female and male nonobese diabetic/severe combined immunodeficient (NOD/SCID) mice, obtained from the mouse facility of the Wistar Institute and Charles River Laboratories, respectively. WM35 human melanoma and HLA-matched human tumor infiltrating lymphocytes (TIL) were generated at H. Lee Moffitt Cancer Center and Research Institute, Tampa, Fla., USA). […] Louis, Mo.) and 1% Pen/Strep (Corning; Cat. no. 30-002-Cl) at 37° C., 5% CO2. PLX4720-resistant cells were kept in cell culture media supplemented with 1 μM PLX4720 to keep these cells resistant against the drug. 350 μg/mL Hygromycin B (Invitrogen; […] Tumor cell lines were tested for mycoplasma contamination by using Universal Mycoplasma detection kit (ATCC) regularly. […] Cat. no. […] Cat. no. S2673). Hypoxia (0.5% 02) was maintained using hypoxic chamber (BioSpherix). […] Cells were incubated with Aqua dead cell staining kit (Thermo Fischer Scientific; Cat. no. […] Cat. no. 565105; clone no. MEM-238) or its isotype (BD Biosciences; Cat. no. 557732; clone no. MOPC-21) at 4° C. for 20 minutes. Cells were fixed using 1% paraformaldehyde for 20 minutes at 4° C. before running them on LSR14. Data was analyzed by FlowJo software (Tree Star).

WM35 cells = test: Granzyme B (GrzB) uptake by WM35 cells; format: cell-based, human; conditions: overnight PLX4720, then inactive GrzB for an hour
Method: Cells were then stained with Aqua dead cell staining kit (Thermo Fischer Scientific) for 15 min at 4° C. fixed in fixation buffer (BD Cytofix/Cytoperm; Cat. no. 51-2090). Granzyme B antibody (Cat. no. 561142) or its isotype control (BD Bioscience; Cat. no. 555749) were used. Stained cells were run on LSR14. Data was analyzed by FlowJo software (Tree Star).

WM983B-M6PR-KO cells = test: CTL assay (51Cr release), WM983B-M6PR-KO targets with TILs; format: cell-based, human; conditions: WM983B-M6PR-KO treated ON with PLX4720
Method: For Chromium (^51Cr) release assays, 1×10^6 human melanoma cells were incubated with 100 μCi ^51Cr (Perkin-Elmer; Cat. no. NEZ030S001MC; 1 mCi/mL) at 37° C. for 60 minutes, washed 3 times with sterile PBS and plated into 96-well round-bottom plates at a cell density of 1×10^4 tumor target cells/well. Target cells were incubated with human CD8+ TILs in triplicates at the indicated effector/target ([…]) ratios in 200 μl culture medium at 37° C. in a humidified CO2 incubator. After incubation, plates were centrifuged, 50 μl supernatant was harvested from each well and ^51Cr release was measured using a gamma counter. The percent specific lysis was calculated as follows: 100×[(experimental release−spontaneous release)/(maximum release−spontaneous release)]. As controls, T cells isolated from blood of healthy donor were used.
To investigate if M6PR has a direct role in the increased uptake of GrzB induced by PLX4720, we generated a WM983B-M6PR-KO cell line lacking M6PR expression, using Crispr/Cas9 technology. Deletion of M6PR was confirmed by western blotting (FIG. 8A) and flow cytometry (FIG. 8B). WM983B and WM983B-M6PR-KO cells were cultured with DMSO or different concentrations of PLX4720. […] We evaluated expression of MHC class I, MHC class II, PDL1, and FasL on tumor cells with overexpression or deletion of M6PR.

**Q.** Which results are given for `CCCS(=O)(=O)Nc1ccc(F)c(C(=O)c2c[nH]c3ncc(Cl)cc23)c1F` [PLX4720]?
**A.** M6PR in tumors (PDX) (M6PR [1]): marked up-regulation of M6PR in tumors; M6PR on the cell surface (M6PR [2]; 1 μM, 2.5, 5 or 10 μM PLX4720, within 6 hours): substantial dose-dependent up-regulation of M6PR on the cell surface; expression of M6PR during hypoxia (M6PR [2]; 0.5% O2, within 3 hours after starting treatment, 10 μM): significant (p<0.0001) increase in the expression of M6PR; M6PR up-regulation, hypoxia compared with normoxia (M6PR [2]; 0.5% O2 vs normoxia): more pronounced under hypoxic conditions than in normoxia; M6PR expression twenty-four hours after starting treatment (M6PR [2]; 24 hours): no up-regulation of M6PR expression; M6PR expression on the cell surface (M6PR [2]; O/N, different concentrations of PLX4720): substantial up-regulation of M6PR; time to maximum M6PR up-regulation (M6PR [2]; hypoxic conditions): ≤ 12 h; GrzB uptake by tumor cells (WM35 cells): significant up-regulation of GrzB uptake; killing of tumor cells by TILs (WM983B-M6PR-KO cells): this effect was not observed
